Laboratory results reported in PubChem BioAssay AID1919009 (Molecular Pharmacology Branch, DTP, NCI, 2023).

Test system: K24384-001-R-PDC complex spheroid growth
Experiment: Anticancer human tumor K24384-001-R-PDC patient-derived pancreatic adenocarcinoma cell line growth inhibition [AhR]
Details: for IC50: curve of first compound; for viability, T/C: stronger effect = lower value
How it was run: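 Spheroids combined tumor cells with HUVEC endothelial cells and human MSCs as stroma. AhR antagonists were paired with standard or investigational drugs, each dosed in half-log steps down from near clinical Cmax, or from 10 microM where Cmax was unknown.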

[1] = second compound 0.1 µM, first compound 0.0316 µM
[2] = second compound 0.1 µM, first compound 0.1 µM
[3] = second compound 0.1 µM, first compound 0.316 µM
[4] = second compound 0.1 µM, first compound 1 µM
[5] = second compound 0.1 µM, first compound 3.16 µM
[6] = second compound 0.1 µM, first compound 10 µM
[7] = second compound 0.316 µM, first compound 0.0316 µM
[8] = second compound 0.316 µM, first compound 0.1 µM
[9] = second compound 0.316 µM, first compound 0.316 µM
[10] = second compound 0.316 µM, first compound 1 µM
[11] = second compound 0.316 µM, first compound 3.16 µM
[12] = second compound 0.316 µM, first compound 10 µM
[13] = second compound 1 µM, first compound 0.0316 µM
[14] = second compound 1 µM, first compound 0.1 µM
[15] = second compound 1 µM, first compound 0.316 µM
[16] = second compound 1 µM, first compound 1 µM
[17] = second compound 1 µM, first compound 3.16 µM
[18] = second compound 1 µM, first compound 10 µM
[19] = second compound 3.16 µM, first compound 0.0316 µM
[20] = second compound 3.16 µM, first compound 0.1 µM
[21] = second compound 3.16 µM, first compound 0.316 µM
[22] = second compound 3.16 µM, first compound 1 µM
[23] = second compound 3.16 µM, first compound 3.16 µM
[24] = second compound 3.16 µM, first compound 10 µM
[25] = second compound 10 µM, first compound 0.0316 µM
[26] = second compound 10 µM, first compound 0.1 µM
[27] = second compound 10 µM, first compound 0.316 µM
[28] = second compound 10 µM, first compound 1 µM
[29] = second compound 10 µM, first compound 3.16 µM
[30] = second compound 10 µM, first compound 10 µM
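Wherever viability, T/C is given: percent of DMSO vehicle-treated spheroid viability set as 100%.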

Row | IC50 (second compound 0.1 µM) [nM] | IC50 (second compound 0.316 µM) [nM] | IC50 (second compound 1 µM) [nM] | IC50 (second compound 3.16 µM) [nM] | IC50 (second compound 10 µM) [nM] | SMILES | viability, T/C [1] [%] | viability, T/C [2] [%] | viability, T/C [3] [%] | viability, T/C [4] [%] | viability, T/C [5] [%] | viability, T/C [6] [%] | viability, T/C [7] [%] | viability, T/C [8] [%] | viability, T/C [9] [%] | viability, T/C [13] [%] | viability, T/C [14] [%] | viability, T/C [19] [%] | viability, T/C [20] [%] | viability, T/C [25] [%] | viability, T/C [26] [%] | also measured
1 | 2010 | 7780 | > 10000 | > 10000 | > 10000 | COc1cc(Nc2ncc3c(n2)-c2ccc(Cl)cc2C(c2c(F)cccc2OC)=NC3)ccc1C(=O)O + CC(CO)NC(=O)c1cc(-c2ccc(Cl)cc2)nn(-c2cnn(C)c2)c1=O | 87.6 | 80.7 | 84 | 57.6 | 44.5 | 45.5 | 81 | 79.9 | 76.4 | 92.3 | 77.7 | 90.6 | 73.4 | 94 | 77.1 | viability, T/C [10]: 57.5%; viability, T/C [11]: 48.4%; viability, T/C [12]: 51.6%; viability, T/C [15]: 79.4%; viability, T/C [16]: 60.5%; viability, T/C [17]: 49.5%; viability, T/C [18]: 55%; viability, T/C [21]: 72.5%; viability, T/C [22]: 54%; viability, T/C [23]: 62.3%; viability, T/C [24]: 58.6%; viability, T/C [27]: 80.7%; viability, T/C [28]: 69.7%; viability, T/C [29]: 64%; viability, T/C [30]: 65.8%
2 | > 100 | > 100 | > 100 | > 100 | > 100 | Cn1ncnc1C1c2n[nH]c(=O)c3cc(F)cc(c23)NC1c1ccc(F)cc1 (stereo not given) + CC(CO)NC(=O)c1cc(-c2ccc(Cl)cc2)nn(-c2cnn(C)c2)c1=O | 82 | 69.5 |  |  |  |  | 74.7 | 74.8 |  | 76.6 | 72.4 | 61.8 | 62.8 | 63.3 | 54.1 | viability, T/C (second compound 0.1 µM, first compound 0.000316 µM): 101%; viability, T/C (second compound 0.1 µM, first compound 0.001 µM): 99.9%; viability, T/C (second compound 0.1 µM, first compound 0.00316 µM): 94%; viability, T/C (second compound 0.1 µM, first compound 0.01 µM): 79.8%; viability, T/C (second compound 0.316 µM, first compound 0.000316 µM): 105%; viability, T/C (second compound 0.316 µM, first compound 0.001 µM): 108%; viability, T/C (second compound 0.316 µM, first compound 0.00316 µM): 90.4%; viability, T/C (second compound 0.316 µM, first compound 0.01 µM): 80.8%; viability, T/C (second compound 1 µM, first compound 0.000316 µM): 95%; viability, T/C (second compound 1 µM, first compound 0.001 µM): 105%; viability, T/C (second compound 1 µM, first compound 0.00316 µM): 90.3%; viability, T/C (second compound 1 µM, first compound 0.01 µM): 65.8%; viability, T/C (second compound 3.16 µM, first compound 0.000316 µM): 78.7%; viability, T/C (second compound 3.16 µM, first compound 0.001 µM): 74.4%; viability, T/C (second compound 3.16 µM, first compound 0.00316 µM): 81.2%; viability, T/C (second compound 3.16 µM, first compound 0.01 µM): 69.9%; viability, T/C (second compound 10 µM, first compound 0.000316 µM): 66.3%; viability, T/C (second compound 10 µM, first compound 0.001 µM): 67.8%; viability, T/C (second compound 10 µM, first compound 0.00316 µM): 67.8%; viability, T/C (second compound 10 µM, first compound 0.01 µM): 66.1%
3 | 984 | 811 | 860 | 473 | 642 | NS(=O)(=O)OCC1CC(n2ccc3c(NC4CCc5ccccc54)ncnc32)CC1O (stereo not given) + CC(CO)NC(=O)c1cc(-c2ccc(Cl)cc2)nn(-c2cnn(C)c2)c1=O | 114 | 123 | 116 | 49 | 28.7 | 25.3 | 132 | 147 | 89.4 | 152 | 162 | 125 | 128 | 87.1 | 79.8 | viability, T/C [10]: 45.6%; viability, T/C [11]: 26.6%; viability, T/C [12]: 22.1%; viability, T/C [15]: 72%; viability, T/C [16]: 38.2%; viability, T/C [17]: 32.9%; viability, T/C [18]: 22.5%; viability, T/C [21]: 60.6%; viability, T/C [22]: 38.8%; viability, T/C [23]: 28.6%; viability, T/C [24]: 23.1%; viability, T/C [27]: 59.1%; viability, T/C [28]: 44.7%; viability, T/C [29]: 29.6%; viability, T/C [30]: 24.6%
